These results are taken from patent publication US10550102B2, “Indane and indoline derivatives and the use thereof as soluble guanylate cyclase activators” (NOVARTIS AG, priority 2014, dated 2020).

One may read the EC50 as the concentration at which the effect is half-maximal.

The assay addresses soluble guanylate cyclase (human GUCYA3 and GUCYB3) overexpressed in CHO cells (Homo sapiens (Human), UniProt Q02108+Q02153). The assay is described as follows: CHO cellular assay (cGMP production, Cisbio cGMP HTRF kit). The class given is cell-based. The following applies: CHO GUCY clone 8E10, cGMP production, assay buffer with 1 mM IBMX and 20 uM ODQ, 1 h room temperature; minimum quantification limit 0.5 nM (listed 0.5 nM means ≤0.5 nM); read-out: EC50. In short, it runs like this: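 Stable CHO-K1 clone 8E10 expressing human sGC (GUCYA3/GUCYB3), 3000 cells/well, exposed 1 h at room temperature to activators in HBSS, 0.1% BSA, 1 mM IBMX, 20 uM ODQ, 0.5% DMSO final. cGMP was measured by HTRF and interpolated from a standard curve. EC50 came from a 4-parameter sigmoidal fit.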

Structures are written as SMILES.

Sequence of soluble guanylate cyclase (human GUCYA3 and GUCYB3) overexpressed in CHO cells (Q02108 whole entry partner): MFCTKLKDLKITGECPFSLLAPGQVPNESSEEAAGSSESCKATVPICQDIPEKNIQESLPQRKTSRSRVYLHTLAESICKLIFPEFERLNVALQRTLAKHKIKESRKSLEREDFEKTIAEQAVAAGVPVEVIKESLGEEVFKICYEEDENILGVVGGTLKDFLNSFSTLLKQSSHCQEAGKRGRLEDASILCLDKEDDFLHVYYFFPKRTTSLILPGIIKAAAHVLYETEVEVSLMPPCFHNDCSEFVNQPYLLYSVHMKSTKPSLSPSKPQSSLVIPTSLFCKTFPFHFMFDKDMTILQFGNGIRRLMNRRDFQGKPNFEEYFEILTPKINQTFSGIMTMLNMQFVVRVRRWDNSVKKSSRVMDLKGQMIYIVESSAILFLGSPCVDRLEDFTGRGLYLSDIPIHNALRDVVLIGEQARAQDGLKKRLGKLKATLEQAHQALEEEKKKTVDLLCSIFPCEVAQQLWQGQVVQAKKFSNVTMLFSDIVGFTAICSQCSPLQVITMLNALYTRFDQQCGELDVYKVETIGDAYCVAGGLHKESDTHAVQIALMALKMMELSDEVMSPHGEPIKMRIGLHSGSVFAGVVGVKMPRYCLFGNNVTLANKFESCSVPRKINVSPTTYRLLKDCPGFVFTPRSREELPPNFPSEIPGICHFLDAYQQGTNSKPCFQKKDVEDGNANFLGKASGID
Sequence of soluble guanylate cyclase (human GUCYA3 and GUCYB3) overexpressed in CHO cells (Q02153 whole entry): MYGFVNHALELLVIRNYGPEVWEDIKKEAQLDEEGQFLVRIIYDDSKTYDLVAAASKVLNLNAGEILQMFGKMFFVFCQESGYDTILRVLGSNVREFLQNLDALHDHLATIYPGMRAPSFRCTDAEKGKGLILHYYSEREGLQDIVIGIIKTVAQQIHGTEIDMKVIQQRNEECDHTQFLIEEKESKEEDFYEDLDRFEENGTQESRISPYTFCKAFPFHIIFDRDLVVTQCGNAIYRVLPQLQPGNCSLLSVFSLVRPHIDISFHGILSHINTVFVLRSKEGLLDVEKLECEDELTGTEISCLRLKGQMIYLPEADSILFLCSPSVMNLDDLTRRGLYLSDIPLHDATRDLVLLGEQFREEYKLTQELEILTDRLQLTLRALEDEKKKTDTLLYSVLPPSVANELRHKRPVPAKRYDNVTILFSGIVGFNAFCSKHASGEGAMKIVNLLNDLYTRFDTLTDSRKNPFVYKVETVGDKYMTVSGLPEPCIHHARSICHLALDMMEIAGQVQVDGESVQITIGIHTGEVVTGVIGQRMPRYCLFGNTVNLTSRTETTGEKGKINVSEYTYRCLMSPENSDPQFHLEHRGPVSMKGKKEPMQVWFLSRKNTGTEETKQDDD

Consider `Cc1cc2c(c(-c3cccc(-n4ncc(C(=O)O)c4C(F)(F)F)n3)c1)C(Nc1ccc(C3CCN(C(=O)C4CC4)CC3)cc1C)CC2` (single isomer, unassigned; (-)) [43 (−), (−)-1-(6-(3-((4-(1-(Cyclopropanecarbonyl)piperidin-4-yl)-2-methylphenyl)amino)-6-methyl-2,3-dihydro-1H-inden-4-yl)pyridin-2-yl)-5-(trifluoromethyl)-1H-pyrazole-4-carboxylic acid], for which the EC50 is 23 nM.

For `Cc1cc(C2CCN(C(=O)C3CC3)CC2)ccc1NC1CCc2cccc(-c3cccc(-n4ncc(C(=O)O)c4C)c3)c21` (single isomer, unassigned; (-)) [44 (−), (−)-1-(3-(3-((4-(1-(cyclopropanecarbonyl)piperidin-4-yl)-2-methylphenyl)amino)-2,3-dihydro-1H-inden-4-yl)phenyl)-5-methyl-1H-pyrazole-4-carboxylic acid], the EC50 was determined as 9.9 nM.

`Cc1cc(C2CCN(C(=O)C3CC3)CC2)ccc1CC1CCc2cccc(-c3cccc(-n4ncc(C(=O)O)c4C)c3)c21` (single isomer, unassigned; (-)) [54. b). (−), (−)-1-(3-(3-(4-(1-(cyclopropanecarbonyl)piperidin-4-yl)-2-methylbenzyl)-2,3-dihydro-1H-inden-4-yl)phenyl)-5-methyl-1H-pyrazole-4-carboxylic acid]: the EC50 turned out to be 168 nM.

On to `CCc1cc(CC2CCc3cccc(-c4cccc(-n5ncc(C(=O)O)c5C)c4)c32)ccc1C1CCN(C(=O)C2CC2)CC1` (single isomer, unassigned; (-)) [55-1 (−), (−)-1-(3-(3-(4-(1-(cyclopropanecarbonyl)piperidin-4-yl)-3-ethylbenzyl)-2,3-dihydro-1H-inden-4-yl)phenyl)-5-methyl-1H-pyrazole-4-carboxylic acid], for which the half-maximal effective concentration (EC50) amounted to 15 nM.

Regarding `Cc1nnc(N2CCC(c3ccc(NC4CCc5cccc(-c6cccc(-n7ncc(C(=O)O)c7C)n6)c54)c(C)c3)CC2)o1` (single isomer, unassigned; (-)) [58. b). (−), (−)-5-methyl-1-(6-(3-((2-methyl-4-(1-(5-methyl-1,3,4-oxadiazol-2-yl)piperidin-4-yl)phenyl)amino)-2,3-dihydro-1H-inden-4-yl)pyridin-2-yl)-1H-pyrazole-4-carboxylic acid], the EC50 came to 3.2 nM.

Consider `CCc1c(C(=O)O)cnn1-c1cccc(-c2cccc3c2N(Cc2ccc(C4CCN(C(=O)C5CC5)CC4)cc2C)CC3C)n1` (single isomer, unassigned; (-)) [(−)-20-2, (−)-1-(6-(1-(4-(1-(Cyclopropanecarbonyl)piperidin-4-yl)-2-methylbenzyl)-3-methylindolin-7-yl)pyridin-2-yl)-5-ethyl-1H-pyrazole-4-carboxylic acid], for which the EC50 was 1 nM.

With `CCc1cc(NC2COc3cccc(-c4cccc(-n5ncc(C(=O)O)c5C(F)(F)F)n4)c32)ccc1C1CCN(C(=O)C2CC2)CC1` (single isomer, unassigned; (-)) [(−)-36-1, (−)-1-(6-(3-((4-(1-(Cyclopropanecarbonyl)piperidin-4-yl)-3-ethylphenyl)amino)-2,3-dihydrobenzofuran-4-yl)pyridin-2-yl)-5-(trifluoromethyl)-1H-pyrazole-4-carboxylic acid], the concentration giving a half-maximal response (EC50) came out at 20 nM.

`CCc1cc(NC2COc3cccc(-c4cccc(-n5ncc(C(=O)O)c5CC)n4)c32)ccc1C1CCN(C(=O)C2CC2)CC1` (single isomer, unassigned; (-)) [(−)-36-2, (−)-1-(6-(3-((4-(1-(Cyclopropanecarbonyl)piperidin-4-yl)-3-ethylphenyl)amino)-2,3-dihydrobenzofuran-4-yl)pyridin-2-yl)-5-ethyl-1H-pyrazole-4-carboxylic acid]: the EC50 turned out to be 1 nM.

In the case of `Cc1cc(C2CCN(C(=O)C(C)C)CC2)ccc1NC1CCc2cccc(-c3cccc(-n4ncc(C(=O)O)c4C)n3)c21` (single isomer, unassigned; (-)) [(−)-46-1, (−)-1-(6-(3-((4-(1-isobutyrylpiperidin-4-yl)-2-methylphenyl)amino)-2,3-dihydro-1H-inden-4-yl)pyridin-2-yl)-5-methyl-1H-pyrazole-4-carboxylic acid], the concentration giving a half-maximal response (EC50) was found to be 100 nM.

For `CCC(=O)N1CCC(c2ccc(NC3CCc4cccc(-c5cccc(-n6ncc(C(=O)O)c6C)n5)c43)c(C)c2)CC1` (single isomer, unassigned; (-)) [(−)-46-2], the EC50 was 160 nM.

Consider `Cc1cc(C2CCN(C(=O)CC3CC3)CC2)ccc1NC1CCc2cccc(-c3cccc(-n4ncc(C(=O)O)c4C)n3)c21` (single isomer, unassigned; (-)) [(−)-46-3, (−)-1-(6-(3-((4-(1-(2-Cyclopropylacetyl)piperidin-4-yl)-2-methylphenyl)amino)-2,3-dihydro-1H-inden-4-yl)pyridin-2-yl)-5-methyl-1H-pyrazole-4-carboylic acid], for which the EC50 is 303 nM.

Take `Cc1cc(C2CCN(C(=O)CC3CC3)CC2)c(F)cc1NC1CCc2cccc(-c3cccc(-n4ncc(C(=O)O)c4C)n3)c21` (single isomer, unassigned; (-)) [(−)-46-5, (−)-1-(6-(3-((4-(1-(2-Cyclopropylacetyl)piperidin-4-yl)-5-fluoro-2-methylphenyl)amino)-2,3-dihydro-1H-inden-4-yl)pyridin-2-yl)-5-methyl-1H-pyrazole-4-carboxylic acid]: the EC50 is 681 nM.

For the compound `CCOC(=O)N1CCC(c2ccc(NC3CCc4cccc(-c5cccc(-n6ncc(C(=O)O)c6CC)n5)c43)cc2CC)CC1` (single isomer, unassigned; (-)) [(−)-52-1, (−)-1-(6-(3-((4-(1-(Ethoxycarbonyl)piperidin-4-yl)-3-ethylphenyl)amino)-2,3-dihydro-1H-inden-4-yl)pyridin-2-yl)-5-ethyl-1H-pyrazole-4-carboxylic acid], the EC50 turned out to be 19 nM.

As for `CCc1cc(NC2CCc3cccc(-c4cccc(-n5ncc(C(=O)O)c5CC)n4)c32)ccc1C1CCN(C(=O)OC)CC1` (single isomer, unassigned; (-)) [(−)-52-2, (−)-5-Ethyl-1-(6-(3-((3-ethyl-4-(1-(methoxycarbonyl)piperidin-4-yl)phenyl)amino)-2,3-dihydro-1H-inden-4-yl)pyridin-2-yl)-1H-pyrazole-4-carboxylic acid], the EC50 amounted to 1 nM.

As to `C=CCOC(=O)N1CCC(c2ccc(NC3CCc4cccc(-c5cccc(-n6ncc(C(=O)O)c6CC)n5)c43)cc2CC)CC1` (single isomer, unassigned; (-)) [(−)-52-3, (−)-1-(6-(3-((4-(1-((Allyloxy)carbonyl)piperidin-4-yl)-3-ethylphenyl)amino)-2,3-dihydro-1H-inden-4-yl)pyridin-2-yl)-5-ethyl-1H-pyrazole-4-carboxylic acid], the EC50 turned out to be 3 nM.

As to `CCc1cc(NC2CCc3cccc(-c4cccc(-n5ncc(C(=O)O)c5CC)n4)c32)ccc1C1CCN(C(=O)C2CC2)CC1` (single isomer, unassigned; (-)) [(−)-53-1, (−)-1-(6-(3-((4-(1-(cyclopropanecarbonyl)piperidin-4-yl)-3-ethylphenyl)amino)-2,3-dihydro-1H-inden-4-yl)pyridin-2-yl)-5-ethyl-1H-pyrazole-4-carboxylic acid], the EC50 is 21 nM.

`Cc1cc(C2CCN(C(=O)CC3CC3)CC2)cc(F)c1NC1CCc2cccc(-c3cccc(-n4ncc(C(=O)O)c4C)n3)c21` (single isomer, unassigned; (-)) [(−)-53-3, (−)-1-(6(3-((4-(1-(2-cyclopropylacetyl)piperidin-4-yl)-2-fluoro-6-methylphenyl)amino)-2,3-dihydro-1H-inden-4-yl)pyridin-2-yl)-5-methyl-1H-pyrazole-4-carboxylic acid]: the EC50 came to 59 nM.

As to `Cc1cc(C2CCN(C(=O)C3CC3)CC2)ccc1NC1CCc2cccc(-c3cccc(-n4ncc(C(=O)O)c4C(F)F)n3)c21` (single isomer, unassigned; (-)) [(−)-53-4, (−)-1-(6-(3-((4-(1-(cyclopropanecarbonyl)piperidin-4-yl)-2-methylphenyl)amino)-2,3-dihydro-1H-inden-4-yl)pyridin-2-yl)-5-(difluoromethyl)-1H-pyrazole-4-carboxylic acid], the EC50 came to 24 nM.

Consider `Cc1cc(C2CCN(C(=O)C3CC3)CC2)ccc1NC1CCc2cccc(-c3cccc(-n4ncc(C(=O)O)c4C(F)(F)F)c3)c21` (single isomer, unassigned; (-)) [Example 6. b). (−), (−)-1-(3-(3-((4-(1-(cyclopropanecarbonyl)piperidin-4-yl)-2-methylphenyl)amino)-2,3-dihydro-1H-inden-4-yl)phenyl)-5-(trifluoromethyl)-1H-pyrazole-4-carboxylic acid], for which the EC50 is 24 nM.

For the compound `Cc1cc(C2CCN(C(=O)C3CC3)CC2)ccc1NC1CCc2cccc(-c3cccc(-n4ncc(C(=O)O)c4C)n3)c21` (single isomer, unassigned; (-)) [Example 7b, (−)-1-(6-(3-((4-(1-(Cyclopropanecarbonyl)piperidin-4-yl)-2-methylphenyl)amino)-2,3-dihydro-1H-inden-4-yl)pyridin-2-yl)-5-methyl-1H-pyrazole-4-carboxylic Acid], the 50% effective concentration (EC50) was found to be 2.4 nM.

On to `Cc1c(C(=O)O)cnn1-c1cccc(-c2cccc3c2C(Nc2ccc(C4CCN(C(=O)C5CC5)CC4)cc2)CC3)n1` (single isomer, unassigned; (-)) [Example 9. b). (−), (−)-1-(6-(3-((4-(1-(cyclopropanecarbonyl)piperidin-4-yl)phenyl)amino)-2,3-dihydro-1H-inden-4-yl)pyridin-2-yl)-5-methyl-1H-pyrazole-4-carboxylic acid], for which the EC50 turned out to be 184 nM.
